According to patent US4457864A, “Synthetic analogues of α-melanotropin” (University Patents, Inc., priority 1981, dated 1984):
“Also recorded” adds a separate entry of the source. Like-named read-outs stand apart in the source and are kept apart here.

How the values were obtained:
[1] = literature reports, cited from earlier work
[2] = resistance to serum proteolytic enzyme degradation, residual activity by in vitro frog skin bioassay; assay type: in vitro ADME; settings: 10 nM peptide, 37° C., Ham's F-10 with 10% horse serum and 2% fetal calf serum, up to 72 hours; FIG. 3
Protocol: Synthetic α-MSH, [Nle^4 ]-α-MSH and [Nle^4, D-Phe^7 ]-α-MSH were incubated (37° C.) under sterile conditions in Corning flasks containing Ham's F-10 media containing 10% horse serum and 2% fetal calf serum. Samples of the media containing the peptides (10 nM) were removed at time zero and at 24, 48 and 72 hours. The samples were immediately frozen and assayed for biological activity using the in vitro frog skin bioassay.

[3] = system: adenylate cyclase in Cloudman S-91 mouse melanoma tumors; settings: Sawyer et al.; cited from earlier work
frog (Rana pipiens) = assay: in vivo skin darkening (reflectance) in frogs after a single subcutaneous injection
Source text: (§1) [Nle^4, D-Phe^7 ]-α-MSH was examined for its biological effects on melanosome dispersion in vivo, using the frog (Rana pipiens), and the lizard (Anolis carolinensis). See, Hadley, et al. Science, 213, pp. 1025-1027 (1981).
Frogs of both sexes were placed in white plastic containers with a small amount of water under overhead illumi-nation. Under these conditions, the animals became light green in color, presumably because they were not releasing any endogenous α-MSH. Forty-eight hours later, light reflectance from the dorsal surface of the animals was measured with a Photovolt reflectometer. At this time, the frogs were injected subcutaneously with Ringer solution (controls) or Ringer solutions containing α-MSH, [Nle^4 ]-α-MSH, or [Nle^4, D-Phe^7 ]-α-MSH (100 μl of a 10^-4 M solution per 10 g of body weight) to provide a final body concentration of approximately 18 μg/10 g. Subsequent reflectance values were taken at 2- to 3-day intervals for 6 weeks.

[4] = cited from earlier work
amphibian melanophores = settings: Sawyer et al.; cited from earlier work
[5] = system: lizard (Anolis carolinensis); assay: in vivo skin darkening in lizards after a single injection; settings: 18 μg/10 g final body concentration
Source text: as §1

[6] = system: adenylate cyclase in Cloudman S-91 mouse melanoma tumors; assay: melanoma adenylate cyclase activity in vitro ([α-32P]ATP conversion to [32P]cAMP); assay type: biochemical
Protocol: (§2) The relative effects of α-MSH, [Nle^4 ]-α-MSH and [Nle^4, D-Phe^7 ]-α-MSH on mammalian melanoma adenylate cyclase activity in vitro were determined by assaying [^α-32 P] ATP conversion to [^32 P]cAMP in Cloudman S-91 mouse melanoma tumors as described in Sawyer, et al., supra. [^32 P]cAMP was isolated, purified and dectected according to Salomon et al., Anal. Biochem., 58, pp. 541-48 (1974).

[7] = system: Cloudman S-91 NCTC 3960 (CCL 53.1) melanoma cells; assay: tyrosinase activity of melanoma cells in tissue culture (3H2O release from [3H]tyrosine); assay type: cell-based, mouse; settings: 0.1 μM melanotropin, exposure 0.5, 4 and 8 hr, then 24 hr with [3H]tyrosine; FIG. 2
Protocol: Cloudman S-91 NCTC 3960 (CCL 53.1) melanoma cells were obtained from the American Type Culture Collection Cell Repository and were grown and maintained as described in Fuller, et. al. Pigment Cell, 4 pp. 97-104 (1979). Melanoma cells (2×10^5) were seeded in 25 cm^2 flasks and allowed to attach overnight. At time t=0, the medium in all the flasks was replaced with 4 ml of medium containing 0.1 μM melanotropin (i.e., α-MSH, [Nle^4 ]-α-MSH, or [Nle^4, D-Phe^7 ]-α-MSH) or a control medium containing no melanotropin. At selected time intervals (t=0.5, 4, and 8 hr.) the control medium and melanotropin-containing medium was removed. The cells were carefully rinsed three times with fresh melanotropin-free medium and then exposed to fresh melanotropinfree medium containing [^3 H]-tyrosine (specific activity 48 Ci/mmol; 1 Ci=3.7×10^10 becquerels) at 1 μCi/ml. After 24 hr, this medium was removed and the tyrosinase activity of the melanoma cells was determined by assaying for the ^3 H2 O released from the [^3 H]tyrosine by the action of tyrosinase.
Tyrosinase activities are expressed as percent activity of control cells (i.e., cells not exposed to melanotropin). Each bar represents the mean of four determinations ±SEM.

[8] = system: frog (Rana pipiens) skin melanophores; assay: in vitro frog skin bioassay, duration of melanosome dispersion; assay type: cell-based
Protocol: Variation in biological effects of α-MSH analogues are generally discussed in terms of "potentiation" (increased activity relative to naturally-occurring α-MSH) and "prolongation". Such effects are measured by the classic frog skin bioassay system. See, Shizume, et al., Endocrinology, 54, 553-560 (1954). Because α-MSH has an extremely short half-life in serum (about 2 minutes), synthetic analogues having greater serum stability in addition to greater potency and prolongation characteristics have been sought.
[Nle^4, D-Phe^7 ]-α-MSH was examined with respect to the duration of its ability to stimulate melanosome dispersion in vitro using the frog (Rana pipiens) skin bioassay as described in Shizume, Endocrinology 54, 553-560 (1954).

[9] = system: adenylate cyclase in Cloudman S-91 mouse melanoma tumors; assay: retention of adenylate cyclase activity after iodination; assay type: biochemical; settings: iodinated through use of lacto peroxidase or iodogen
Protocol: as §2
The procedures of Hunter, et al., Nature, 194, pp. 495-496 (1962) were applied to [Nle^4, D-Phe^7 ]-α-MSH and the resultant compound was tested for adenylate cyclase activity as in Example 2.

[10] = cited from earlier work; remark: listed apart in the source
[11] = s.c., 18 μg/10 g, single injection

Substance: [D-Ser^1]-α-MSH
- potency / activity relative to the natural hormone [1]: diminished potency
- potency / activity relative to the natural hormone ([1]; listed as D-Ser^1): no more active than the native hormone

Substance: [D-Tyr^2 ]-α-MSH
- potency / activity relative to the natural hormone [1]: significantly less potent; also recorded: diminished potency

Substance: [Nle^4 ]-α-MSH
- loss of biological activity on incubation in serum-containing medium [2]: lost essentially all biological activity
- potency in stimulating melanoma adenylate cyclase activity relative to α-MSH [3]: approximately twice as potent
- duration of darkening effect compared with α-MSH (frog (Rana pipiens); [11]): effective for only a slightly longer period than α-MSH
- biological activity upon subsequent exposure to sodium iodide ([4]; after chloramine-T, further contact with sodium iodide): inactivated; also recorded: loses activity
- biological activity after chloramine-T treatment ([4]; chloramine-T, oxidant used in peptide iodination): resistant to inactivation; also recorded: retains activity
- potency in dispersing amphibian melanophores relative to α-MSH (amphibian melanophores): approximately twice as potent

Substance: [Nle^4, D-Phe^7 ]-α-MSH
- duration of prolonged skin darkening [5]: about 3 days
- loss of biological activity on incubation in serum-containing medium [2]: almost totally resistant to loss of biological activity
- maximal adenylate cyclase activity compared with α-MSH and [Nle4]-α-MSH ([6]; FIG. 1): same maximal adenylate cyclase activity
- potency in stimulating adenylate cyclase relative to the native hormone (α-MSH) ([6]; dose-response curves of FIG. 1, Cloudman S-91 mouse melanoma): 26 times
- tyrosinase activity compared with α-MSH and [Nle4]-α-MSH [7]: much more active
- degree of skin darkening in vivo (frog (Rana pipiens); s.c., 18 μg/10 g final body concentration): Maximum darkening
- skin darkening remaining at 6 weeks (frog (Rana pipiens); s.c., 18 μg/10 g, 6 weeks after single injection): half-maximum darkening
- darkening effect of lower dose compared with higher dose (frog (Rana pipiens); single injection, 0.18 μg/10 g versus 18 μg/10 g final body concentration): nearly as effective as the higher dose
- duration of melanosome dispersion in vitro [8]: "prolonged" biological effect superior to α-MSH and [Nle^4 ]-α-MSH
- adenylate cyclase activity after iodination [9]: fully retained its activity

Substance: α-Melanotropin [α-MSH]
- time by which the darkening effect was totally lost (frog (Rana pipiens); [11]): ≤ 2 days
- half-life in serum [10]: about 2 minutes
- biological activity upon oxidative iodination ([4]; iodination for radiolabelling): essentially inactivated; also recorded: loses biological activity
